Measurements: patent US10882837B2, “Amide compounds and use thereof” (ALPHALA CO., LTD., priority 2017, dated 2021)

Legend:
[1] = biological target: T1, glucagon receptor (GCGR) (Homo sapiens, UniProt P47871); assay: Glucagon cAMP inhibition assay (Cisbio cAMP Dynamic 2 HTRF); format: cell-based; settings: GCGR overexpressed CHO-K1 cells or human primary hepatocytes (not specified); glucagon at EC50
T1 construct: expressed in transfected cells; host or cells: CHO-K1
Procedure: Glucagon eAMP Inhibition Assay
Downstream secondary messenger eAMP induced by glucagon was detected by Cisbio cAMP Dynamic 2 kit. Testing compounds were each prepared as a dimethyl sulfoxide (DMSO) solution at the concentration of 10 mM. To evaluate the potency of compounds in inhibiting the cAMP production, glucagon receptor (GCGR) overexpressed CHO-K1 cells or human primary hepatocytes were treated with compounds with a serial dilution. The cells were re-suspended in Hank's Balanced Salt solution (HBSS) contained 0.1% (w/v) bovine serum albumin and 800 nM 3-isobutyl-1-methylxanthine (IBMX) and seeded into low volume, 384 wells white plate. The diluted compounds were then added into the plate for 30 minutes pre-incubation where the final DMSO concentration was 1%. The cells were stimulated with glucagon at the concentration equaled to EC50 (an indicium of the concentration of a drag that gives half-maximal response) for 30 minutes at room temperature. After incubation, lysis buffer contain cAMP antibody and fluorescence acceptor were added into each well for additional 60 minutes incubation. Results were recorded by Molecular Devices SpectraMax Paradigm with the HTRF Detection Cartridges and the IC50 value of each compound in inhibiting the cAMP production was calculated with non-linear regression based on the amount of cAMP production.

[2] = biological target: GCGR (Homo sapiens, UniProt P47871); assay: I125-glucagon binding assay (competition, GCGR membrane fractions); set-up: expressed in transfected cells; host or cells: CHO-K1; inhibition: dose or concentration left out as unconfirmed; settings: for IC50: competition with I125-glucagon 0.0625 nM, membrane fractions from GCGR overexpressed CHO-K1 cells
GCGR, sequence (P47871 26-477, species assumed): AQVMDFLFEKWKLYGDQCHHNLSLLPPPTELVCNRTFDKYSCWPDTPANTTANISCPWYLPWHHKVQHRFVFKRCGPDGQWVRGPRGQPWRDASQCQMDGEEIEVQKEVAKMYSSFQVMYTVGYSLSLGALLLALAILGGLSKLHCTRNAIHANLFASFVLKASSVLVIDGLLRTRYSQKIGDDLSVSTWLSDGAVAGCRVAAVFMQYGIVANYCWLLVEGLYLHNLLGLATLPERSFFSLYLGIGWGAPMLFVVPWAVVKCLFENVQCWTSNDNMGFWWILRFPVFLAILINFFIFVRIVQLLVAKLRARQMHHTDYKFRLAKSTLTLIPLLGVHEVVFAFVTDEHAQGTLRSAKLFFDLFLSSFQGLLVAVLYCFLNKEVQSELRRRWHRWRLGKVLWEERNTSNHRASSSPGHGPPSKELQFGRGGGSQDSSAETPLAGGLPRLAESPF
Procedure: I^125-Glucagon Binding Assay
The binding affinity of each compound was evaluated by a competition assay with I^125-glucagon. GCGR membrane fractions were obtained from GCGR overexpressed CHO-K1 cells as a stock of 1 mg/ml concentration. To evaluate the IC50 of compounds binding to GCGR, GCGR membrane fractions were treated with compounds with a serial dilution. The membrane fractions were diluted to 7.5 microgram per well in 70 microliter assay buffer contained 50 mM Tris pH 7.4 and 0.5% (w/v) bovine serum albumin and added into 96 wells plate. The membrane fractions were then mixed with 10 microliter diluted compounds. After 5 minutes pre-incubation, 20 microliter I^125 labeled glucagon (Perkin Elmer) was added into each well at the final concentration of 0.0625 nM. The assay mixtures were incubated at 25° C. for 30 minutes and then transferred onto the Millipore Multiscreen GF/B Plate coated with 0.5% (w/v) Polyethyleneimine. The filter plate was washed with wash buffer contained 50 mM Tris pH 7.4 for 2 times, 300 microliter each time. The residual isotope was detected by Hidex CHAMELEON V micro-beta counter and the IC50 value of each compound binding to GCGR was calculated with non-linear regression.

T1 sequence (P47871 26-477, species assumed): as above

Row | Structure (SMILES) | IC50 [1] | IC50 [2] | inhibition ([2]; read-out: percentage of inhibition (number in parenthesis in IC50 binding column)) | inhibition at 30 µM ([2]; compound at 30 μM, read-out: percentage of inhibition (number in parenthesis in IC50 binding column))
1 | COC(=O)CCNC(=O)c1ccc(NC(c2ccc(-c3noc(-c4ccccc4)n3)cc2)C(C)C)cc1 (stereo not drawn) [Compound 2-31, methyl 3-(4-((2-methyl-1-(4-(5-phenyl-1,2,4-oxadiazol-3-yl)phenyl)propyl)amino)benzamido)propanoate] | 97 nM | 204 nM |  | 
2 | CCOC(=O)CCNC(=O)c1ccc(N[C@H](c2ccc(-c3noc(C(F)(F)F)n3)cc2)C(C)CC)cc1 (stereo partly drawn) [Compound 2-29, ethyl 3-(4-(((1S)-2-methyl-1-(4-(5-(trifluoromethyl)-1,2,4-oxadiazol-3-yl)phenyl)butyl)amino)benzamido)propanoate] | 172 nM | 1820 nM | 18% | 
3 | CCOC(=O)CCNC(=O)c1ccc(NC(c2ccc(-c3nnc(-c4ccccc4)o3)cc2)C(C)C)cc1 (stereo not drawn) [Compound 1-3, Ethyl 3-(4-((2-methyl-1-(4-(5-phenyl-1,3,4-oxadiazol-2-yl)phenyl)propyl)amino)benzamido)propanoate] | 55 nM | 1870 nM |  | 43%
4 | CCCC[C@H](Nc1ccc(C(=O)NCCC(=O)O)cc1)c1ccc(-c2nnc(-c3ccccn3)o2)cc1 [Compound 1-45, (S)-3-(4-((1-(4-(5-(pyridin-2-yl)-1,3,4-oxadiazol-2yl)phenyl)pentyl)amino)benzamido)propanoic acid] | 2540 nM | 339 nM |  | 
5 | CCOC(=O)CCNC(=O)c1ccc(N[C@H](c2ccc(-c3noc(-c4ccccc4)n3)cc2)C(C)C)cc1 [Compound 2-27, ethyl (S)-3-(4-((2-methyl-1-(4-(5-phenyl-1,2,4-oxadiazol-3-yl)phenyl)propyl)amino)benzamido)propanoate] | 61 nM | 634 nM |  | 
6 | CCCC[C@@H](Nc1ccc(C(=O)NCCC(=O)O)cc1)c1ccc(-c2nc3ccccc3o2)cc1 [Compound 4-10] | 1500 nM | 150 nM |  | 
7 | CC(C)CC(Nc1ccc(C(=O)NCCC(=O)O)cc1)c1ccc(-c2nnc(-c3ccccc3)o2)cc1 (stereo not drawn) [Compound 1-5, 3-(4-((3-Methyl-1-(4-(5-phenyl-1,3,4-oxadiazol-2-yl)phenyl)butyl)amino)benzamido)propanoic acid] | 4130 nM | 175 nM |  | 
8 | CC(C)C[C@H](Nc1ccc(C(=O)NCCC(=O)O)cc1)c1ccc(-c2noc(-c3ccccc3)n2)cc1 [Compound 2-43, (S)-3-(4-((3-methyl-1-(4-(5-phenyl-1,2,4-oxadiazol-3-yl)phenyl)butyl)amino)benzamido)propanoic acid] | 391 nM | > 30000 nM |  | 
9 | O=C(O)CCNC(=O)c1ccc(NC(c2ccc(-c3noc(-c4ccccc4)n3)cc2)C2CCCC2)cc1 (stereo not drawn) [Compound 2-15, 3-(4-((cyclopentyl(4-(5-phenyl-1,2,4-oxadiazol-3-yl)phenyl)methyl)amino)benzamido)propanoic acid] | 450 nM | 106 nM |  | 
10 | CCC(C)[C@@H](Nc1ccc(C(=O)NCCC(=O)O)cc1)c1ccc(-c2nnc(-c3ccccc3)o2)cc1 (stereo partly drawn) [Compound 1-50, 3-(4-(((1R)-2-methyl-1-(4-(5-phenyl-2,3,4-oxadiazol-2-yl)phenyl)butyl)amino)benzamido)propanoic acid] | 2730 nM | 82 nM |  | 
11 | CCCCC(Nc1ccc(C(=O)NCCC(=O)OCC)cc1)c1ccc(-c2nnc(C(F)(F)F)o2)cc1 (stereo not drawn) [Compound 1-33, ethyl 3-(4-((1-(4-(5-(trifluoromethyl)-1,3,4-oxadiazol-2-yl)phenyl)pentyl)amino)benzamido)propanoate] | 142 nM | > 30000 nM |  | 
12 | CC(C)C(Nc1ccc(C(=O)NCCC(=O)O)cc1)c1ccc(-c2nnc(C(F)(F)F)o2)cc1 (stereo not drawn) [Compound 1-4, 3-(4-((2-Methyl-1-(4-(5-(trifluoromethyl)-1,3,4-oxadiazol-2-yl)phenyl)propyl)amino)benzamido)propanoic acid] | > 30000 nM | 433 nM |  | 
13 | CCOC(=O)CCNC(=O)c1ccc(N[C@H](c2ccc(-c3nc4ccccc4o3)cc2)C2CCCC2)cc1 [Compound 4-23, ethyl (S)-3-(4-(((4-(benzo[d]oxazol-2-yl)phenyl)(cyclopentyl)methyl)amino)benzamido)propanoate] | 65 nM | 308 nM |  | 
14 | CCC(C)[C@H](Nc1ccc(C(=O)NCCC(=O)O)cc1)c1ccc(-c2nc3ccccc3o2)cc1 (stereo partly drawn) [Compound 4-20, 3-(4-(((1S)-1-(4-(benzo[d]oxazol-2-yl)phenyl)-2-methylbutyl)amino)benzamido)propanoic acid] | 984 nM | 17 nM |  | 
15 | CC(C)[C@H](Nc1ccc(C(=O)NCCC(=O)O)cc1)c1ccc(-c2nc(-c3ccccc3)no2)cc1 [Compound 5-4, (S)-3-(4-((2-methyl-1-(4-(3-phenyl-1,2,4-oxadiazol-5-yl)phenyl)propyl)amino)benzamido)propanoic acid] | 292 nM | 34.1 nM |  | 
16 | CCC(C)[C@@H](Nc1ccc(C(=O)NCCC(=O)O)cc1)c1ccc(-c2nc3ccccc3o2)cc1 (stereo partly drawn) [Compound 4-22, 3-(4-(((1R)-1-(4-(benzo[d]oxazol-2-yl)phenyl)-2-methylbutyl)amino)benzamido)propanoic acid] | 899 nM | 60 nM |  | 
17 | CCOC(=O)CCNC(=O)c1ccc(N[C@@H](c2ccc(-c3nnc(C(F)(F)F)o3)cc2)C(C)CC)cc1 (stereo partly drawn) [Compound 1-35, ethyl 3-(4-(((1R)-2-methyl-1-(4-(5-(trifluoromethyl)-1,3,4-oxadiazol-2-yl)phenyl)butyl)amino)benzamido)propanoate] | 384 nM | > 30000 nM |  | 
18 | CCC(C)C(Nc1ccc(-c2nnc(-c3ccccc3)o2)cc1)c1ccc(C(=O)NCCC(=O)O)cc1 (stereo not drawn) [Compound 3-6, 3-(4-(2-methyl-1-((4-(5-phenyl-1,3,4-oxadiazol-2-yl)phenyl)amino)butyl)benzamido)propanoic acid] | 650 nM | 58 nM |  | 
19 | CCOC(=O)CCNC(=O)c1ccc([C@@H](Nc2ccc(-c3nnc(-c4ccccc4)o3)cc2)C(C)C)cc1 [Compound 3-12, (S)-ethyl 3-(4-(2-methyl-1-(4-(5-phenyl-1,3,4-oxadiazol-2-yl)phenylamino)propyl)benzamido)propanoate] | 277 nM | > 30000 nM |  | 
20 | CC(C)C(Oc1ccc(-c2nc3ccccc3o2)cc1)c1ccc(C(=O)NCCC(=O)O)cc1 (stereo not drawn) [Compound 7-2, 3-(4-(1-(4-(Benzo[d]oxazol-2-yl)phenoxy)-2-methylpropyl)benzamido)propanoic acid] | 292 nM | 177 nM |  | 
21 | CCCC[C@H](Nc1ccc(C(=O)NCCC(=O)OCC)cc1)c1ccc(-c2nnc(-c3ccccn3)o2)cc1 [Compound 1-43, ethyl (S)-3-(4-((1-(4-(5-(pyridin-2-yl)-1,3,4-oxadiazol-2-yl)phenyl)pentyl)amino)benzamido)propanoate] | 46.4 nM | 1480 nM |  | 
22 | CC(C)[C@@H](Nc1ccc(-c2nnc(-c3ccccc3)o2)cc1)c1ccc(C(=O)NCCC(=O)O)cc1 [Compound 3-15, (R)-3-(4-(2-methyl-1-(4-(5-phenyl-1,3,4-oxadiazol-2-yl)phenylamino)propyl)benzamido)propanoic acid] | 632 nM | 21 nM |  | 
23 | CC(C)CC(Nc1ccc(C(=O)NCCC(=O)O)cc1)c1ccc(-c2nnc(-c3ccc(F)cc3)o2)cc1 (stereo not drawn) [Compound 1-28, 3-(4-((1-(4-(5-(4-fluorophenyl)-1,3,4-oxadiazol-2-yl)phenyl)-3-methylbutyl)amino)benzamido)propanoic acid] | 4760 nM | 563 nM |  | 
